In US10947242B2, “[1,2,4]triazolo[1,5and#8208;A]pyrimidine compounds as PDE2 inhibitors” (Janssen Pharmaceutica NV, priority 2016, dated 2021):
Where “and” joins values, the source holds several entries; their conditions need not be identical. Identical values can stand only once. Like-named read-outs stand apart in the source and are kept apart here.

Tests used:
[1] = biological target: T1, Human recombinant PDE2A (hPDE2A) (Homo sapiens, UniProt O00408); assay: In vitro assay PDE2A (SPA, 3H-cGMP hydrolysis); assay type: biochemical; settings: for Emax: read-out: hPDE2A Emax
T1 construct: His tag (inferred from metal chelate purification); made in house; host or cells: Sf9 insect cells (baculovirus)
T1 sequence (O00408 whole entry): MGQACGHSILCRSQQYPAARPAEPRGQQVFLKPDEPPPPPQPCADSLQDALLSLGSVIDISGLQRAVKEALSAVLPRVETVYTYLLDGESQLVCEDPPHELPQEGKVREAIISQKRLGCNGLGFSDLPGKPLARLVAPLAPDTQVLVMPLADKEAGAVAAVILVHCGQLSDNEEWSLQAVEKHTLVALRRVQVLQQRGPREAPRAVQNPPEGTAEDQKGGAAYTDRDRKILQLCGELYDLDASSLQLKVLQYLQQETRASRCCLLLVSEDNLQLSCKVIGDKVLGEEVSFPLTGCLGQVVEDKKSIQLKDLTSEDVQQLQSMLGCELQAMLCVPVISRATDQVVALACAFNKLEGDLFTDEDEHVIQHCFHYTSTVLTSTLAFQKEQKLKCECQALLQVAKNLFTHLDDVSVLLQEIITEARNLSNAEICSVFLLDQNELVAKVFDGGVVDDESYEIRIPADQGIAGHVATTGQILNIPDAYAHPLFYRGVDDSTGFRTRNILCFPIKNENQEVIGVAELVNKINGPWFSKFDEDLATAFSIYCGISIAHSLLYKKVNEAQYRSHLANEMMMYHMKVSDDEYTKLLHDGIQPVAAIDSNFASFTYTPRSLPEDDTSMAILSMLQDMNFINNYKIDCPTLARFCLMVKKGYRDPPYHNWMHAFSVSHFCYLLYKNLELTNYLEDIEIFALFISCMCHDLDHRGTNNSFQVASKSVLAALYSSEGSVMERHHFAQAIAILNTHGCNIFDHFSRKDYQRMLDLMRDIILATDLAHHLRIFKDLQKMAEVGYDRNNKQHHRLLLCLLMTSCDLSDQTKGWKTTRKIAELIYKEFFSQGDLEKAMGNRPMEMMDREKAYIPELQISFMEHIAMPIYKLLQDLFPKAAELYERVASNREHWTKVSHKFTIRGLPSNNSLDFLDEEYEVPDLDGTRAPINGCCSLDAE

[2] = biological target: T2, Human recombinant PDE3A (hPDE3A) (Homo sapiens, UniProt Q14432); assay: In vitro assay PDE3A (SPA, 3H-cAMP hydrolysis); assay type: biochemical; settings: for IC50: hPDE3B pIC50, read-out: pIC50 (converted); for Emax: read-out: hPDE3B Emax, read-out: Emax;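 for all read-outs here: the method names PDE3A and the table heading PDE3B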
T2 construct: purchased Scottish Biomedical; host or cells: Sf9 insect cells
T2 sequence (Q14432 whole entry): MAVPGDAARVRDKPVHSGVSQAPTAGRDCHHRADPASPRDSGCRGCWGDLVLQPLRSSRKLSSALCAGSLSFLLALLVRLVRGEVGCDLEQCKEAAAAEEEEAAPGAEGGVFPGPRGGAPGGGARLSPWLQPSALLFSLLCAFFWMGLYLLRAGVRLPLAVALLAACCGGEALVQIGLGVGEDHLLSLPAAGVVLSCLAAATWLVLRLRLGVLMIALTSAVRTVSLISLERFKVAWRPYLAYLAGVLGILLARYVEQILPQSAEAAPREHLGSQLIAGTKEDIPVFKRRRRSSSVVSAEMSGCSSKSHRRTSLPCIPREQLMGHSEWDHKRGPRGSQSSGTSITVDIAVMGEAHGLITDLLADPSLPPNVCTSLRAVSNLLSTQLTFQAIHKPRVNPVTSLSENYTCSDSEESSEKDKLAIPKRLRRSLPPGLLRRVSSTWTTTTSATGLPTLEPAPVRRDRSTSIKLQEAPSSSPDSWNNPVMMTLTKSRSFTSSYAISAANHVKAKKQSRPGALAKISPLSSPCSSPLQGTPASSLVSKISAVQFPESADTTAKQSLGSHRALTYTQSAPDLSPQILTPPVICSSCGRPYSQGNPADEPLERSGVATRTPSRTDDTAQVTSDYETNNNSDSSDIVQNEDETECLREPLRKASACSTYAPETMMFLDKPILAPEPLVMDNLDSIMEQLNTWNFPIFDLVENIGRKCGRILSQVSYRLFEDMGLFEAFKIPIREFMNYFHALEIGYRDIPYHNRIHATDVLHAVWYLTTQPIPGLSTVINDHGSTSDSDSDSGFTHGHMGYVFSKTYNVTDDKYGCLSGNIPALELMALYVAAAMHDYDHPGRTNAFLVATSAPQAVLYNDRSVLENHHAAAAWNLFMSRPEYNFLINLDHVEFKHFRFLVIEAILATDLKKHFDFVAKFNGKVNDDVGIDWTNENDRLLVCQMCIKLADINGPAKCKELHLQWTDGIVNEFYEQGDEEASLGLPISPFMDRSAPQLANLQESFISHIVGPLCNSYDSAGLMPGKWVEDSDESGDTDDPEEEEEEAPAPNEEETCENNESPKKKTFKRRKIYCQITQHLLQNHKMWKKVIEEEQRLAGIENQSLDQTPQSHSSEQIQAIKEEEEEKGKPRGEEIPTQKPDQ
Method in brief: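 Human PDE3A, cloned from brain, as partially purified Sf9 lysate. Substrate 0.4 μM cAMP plus [3H]-cAMP (2.4 μCi/ml final) in 50 mM Tris pH 7.8, 8.3 mM MgCl2, 1.7 mM EGTA, 60 min at room temperature, 1% DMSO final. Hydrolysis read by SPA scintillation counting against no-enzyme blanks and DMSO controls.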

[3] = biological target: T3, Human recombinant PDE10A (hPDE10A) (Homo sapiens, UniProt Q9Y233); assay: In vitro assay PDE10A, human clone (SPA, 3H-cAMP hydrolysis); assay type: biochemical
T3 construct: His tag (inferred from metal chelate purification); made in house; host or cells: Sf9 insect cells (baculovirus)
T3 sequence (Q9Y233 267-1055): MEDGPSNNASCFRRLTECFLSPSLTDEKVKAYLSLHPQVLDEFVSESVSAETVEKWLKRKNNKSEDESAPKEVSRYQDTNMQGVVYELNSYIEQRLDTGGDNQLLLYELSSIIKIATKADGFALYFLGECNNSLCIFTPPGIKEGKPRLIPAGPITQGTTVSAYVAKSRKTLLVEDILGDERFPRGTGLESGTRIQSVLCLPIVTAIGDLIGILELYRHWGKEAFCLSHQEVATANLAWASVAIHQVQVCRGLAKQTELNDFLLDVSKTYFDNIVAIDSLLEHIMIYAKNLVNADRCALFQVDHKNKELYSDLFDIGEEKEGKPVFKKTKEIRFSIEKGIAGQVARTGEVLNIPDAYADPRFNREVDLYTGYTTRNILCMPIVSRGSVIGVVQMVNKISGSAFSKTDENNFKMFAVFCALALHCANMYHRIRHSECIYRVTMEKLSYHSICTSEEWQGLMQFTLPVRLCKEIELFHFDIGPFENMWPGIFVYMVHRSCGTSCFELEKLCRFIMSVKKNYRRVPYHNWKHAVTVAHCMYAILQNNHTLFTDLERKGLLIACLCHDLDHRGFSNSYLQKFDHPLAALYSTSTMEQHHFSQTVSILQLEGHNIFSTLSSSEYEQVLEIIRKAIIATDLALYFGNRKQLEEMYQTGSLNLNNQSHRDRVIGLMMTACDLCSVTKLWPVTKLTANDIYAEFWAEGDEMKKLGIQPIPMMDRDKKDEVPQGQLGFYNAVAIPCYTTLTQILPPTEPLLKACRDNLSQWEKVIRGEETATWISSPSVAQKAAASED
Method in brief: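 Human recombinant PDE10A was expressed in Sf9 cells via baculovirus and incubated with compound in 50 mM Tris pH 7.8, 8.3 mM MgCl2, 1.7 mM EGTA. Substrate was 60 nM cAMP plus 0.008 μCi 3H-cAMP for 60 min at room temperature, read by SPA scintillation counting. Controls used 1% DMSO, and blanks omitted enzyme.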

PDE2A = biological target: T4, PDE2A (Rattus norvegicus, UniProt Q01062); assay: PDE2 occupancy by test compounds, ex-vivo autoradiography with [3H]B-17a; assay type: in vivo, Male Wistar rats
T4 construct: Twenty μm-thick striatal sections were cut; from tissue; host or cells: rat brain, striatal sections
T4 sequence (Q01062 1-928): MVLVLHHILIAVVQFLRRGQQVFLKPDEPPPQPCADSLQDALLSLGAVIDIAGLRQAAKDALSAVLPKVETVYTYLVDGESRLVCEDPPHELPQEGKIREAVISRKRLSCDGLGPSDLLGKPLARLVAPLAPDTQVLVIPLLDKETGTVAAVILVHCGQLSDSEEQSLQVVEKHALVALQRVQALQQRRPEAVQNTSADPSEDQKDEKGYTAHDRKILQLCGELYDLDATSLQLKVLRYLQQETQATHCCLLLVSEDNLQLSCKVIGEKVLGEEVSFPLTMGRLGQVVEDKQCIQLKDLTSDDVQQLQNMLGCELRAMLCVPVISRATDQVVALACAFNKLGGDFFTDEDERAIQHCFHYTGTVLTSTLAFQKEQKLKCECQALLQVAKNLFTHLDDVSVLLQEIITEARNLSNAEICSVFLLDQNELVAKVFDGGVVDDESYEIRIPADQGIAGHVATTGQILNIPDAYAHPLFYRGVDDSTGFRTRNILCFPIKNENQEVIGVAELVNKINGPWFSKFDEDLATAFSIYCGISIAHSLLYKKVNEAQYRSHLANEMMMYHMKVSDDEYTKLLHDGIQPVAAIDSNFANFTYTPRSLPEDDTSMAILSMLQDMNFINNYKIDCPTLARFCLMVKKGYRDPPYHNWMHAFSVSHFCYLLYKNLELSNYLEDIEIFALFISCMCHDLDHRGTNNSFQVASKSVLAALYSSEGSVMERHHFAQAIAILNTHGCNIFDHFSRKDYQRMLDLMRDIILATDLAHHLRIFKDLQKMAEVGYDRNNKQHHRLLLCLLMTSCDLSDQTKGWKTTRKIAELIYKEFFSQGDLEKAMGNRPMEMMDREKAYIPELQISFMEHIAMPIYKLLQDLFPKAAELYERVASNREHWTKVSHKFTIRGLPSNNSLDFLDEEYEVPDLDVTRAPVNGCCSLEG

[4] = hPDE2A pIC50, human recombinant PDE2A, 10 μM cGMP substrate
[5] = human clone (h), default, read-out: hPDE10A2 Emax
[6] = human clone (h), default, read-out: hPDE10A2 pIC50 (converted)
[7] = po, 10 mg/kg, route PO (oral), percentage receptor occupancy, ex-vivo autoradiography, striatum
[8] = human recombinant PDE2A, 10 μM cGMP substrate, read-out: hPDE2A pIC50 (converted)
[9] = read-out: hPDE2A pIC50 (converted)
[10] = 10 mg/kg, route SC (subcutaneous), percentage receptor occupancy, ex-vivo autoradiography, striatum
[11] = human clone by default (no (r) mark), read-out: hPDE10A2 or rPDE10A2 Emax
[12] = human clone by default (no (r) mark), read-out: hPDE10A2 or rPDE10A2 pIC50 (converted)

| Emax [2] [%] | IC50 [1, 8] [nM] | Emax ([1]; human recombinant PDE2A) [%] | IC50 [1, 9] [nM] | receptor occupancy at 10 mg/kg (PDE2A; sc, 10 mg/kg, route SC (subcutaneous), percentage receptor occupancy, ex-vivo autoradiography, striatum) [%] | Structure (SMILES) | melting point [°C] | IC50 ([1]; hPDE2A pIC50) [nM] | IC50 [1, 4] [nM] | Emax [1] [%] | IC50 [2] [nM] | Emax [3, 5] [%] | IC50 [3, 6] | PDE2 Occupancy at 10 mg/kg (PDE2A; 10 mg/kg, route PO (oral), percentage receptor occupancy, ex-vivo autoradiography, striatum) | receptor occupancy at 10 mg/kg (PDE2A; [7]) [%] | hPDE10A2 Emax ([3]; human clone (h), default) | receptor occupancy at 10 mg/kg (PDE2A; [10]) [%] | ED50 (PDE2A; po, read-out: PDE Occupancy ED50) [mg/kg] | hPDE3B Emax [2] | Emax [3, 11] [%] | IC50 [3, 12] [nM] |
| --- | --- | --- | --- | --- | --- | --- | --- | --- | --- | --- | --- | --- | --- | --- | --- | --- | --- | --- | --- | --- |
| 42 | 2.09 | 99 | 2.09 | 12 | Cc1cc(C(=O)N2CC[C@@H](C)[C@H](c3cc(C(F)F)nc4ncnn34)C2)cnc1C [Compound 49] | 263.81 |  |  | 99 | 5750 | 95 | 513 nM |  |  |  |  |  |  |  |  |
| 22 | 13.8 | 101 | 13.8 |  | Cc1cnc(C(F)(F)F)cc1C(=O)N1CC[C@@H](C)[C@H](c2cc(C(F)F)nc3ncnn23)C1 [Compound 52] | 228.39 |  |  | 101 | > 10000 | 76 | 3020 nM |  | 2 |  |  |  |  |  |  |
| 11 | 2340 | 28 | 2340 |  | Cc1csc(C(=O)N2CC[C@H](C)[C@@H](c3cc(C(F)F)nc4ncnn34)C2)c1 [Compound 213] | 169.7 |  |  | 28 | > 10000 | 23 | > 10000 nM |  |  |  |  |  |  |  |  |
| 61 |  |  | 2.95 |  | Cc1cc([C@@H]2CN(C(=O)c3cc(Cl)ncc3Cl)CC[C@H]2C)n2ncnc2n1 [Compound 271] | 247.4 |  |  | 99 | 7410 | 95 | 162 nM |  |  |  |  |  |  | 95 | 162 |
| 95 |  |  | 0.501 |  | C[C@@H]1CCN(C(=O)c2ccc3ncccc3c2)C[C@H]1c1cc(C(F)F)nc2ncnn12 [Compound 322] | 180.27 |  |  | 100 | 479 |  |  |  |  |  |  |  |  | 99 | 18.6 |
| 97 |  |  | 0.851 |  | C[C@@H]1CCN(C(=O)c2cnc3ccccc3c2)C[C@H]1c1cc(C(F)F)nc2ncnn12 [Compound 324] | 204.06 |  |  | 100 | 263 |  |  |  |  |  |  |  |  | 100 | 66.1 |
| 98 |  |  | 1.15 |  | C[C@@H]1CCN(C(=O)c2cnc3c(F)cccc3c2)C[C@H]1c1cc(C(F)F)nc2ncnn12 [Compound 325] | 226.36 |  |  | 100 | 309 |  |  |  |  |  |  |  |  | 98 | 64.6 |
| 99 |  |  | 0.417 |  | C[C@@H]1CCN(C(=O)c2ccc3c(ccn3C)c2)C[C@H]1c1cc(C(F)F)nc2ncnn12 [Compound 327] | 194.86 |  |  | 101 | 77.6 |  |  |  |  |  |  |  |  | 100 | 20.4 |
| 95 |  |  | 0.55 |  | C[C@@H]1CCN(C(=O)c2cnc3c(Cl)cccc3c2)C[C@H]1c1cc(C(F)F)nc2ncnn12 [Compound 329] | 227.79 |  |  | 100 | 204 |  |  |  |  |  |  |  |  | 100 | 21.4 |
| 99 |  |  | 0.479 |  | C[C@@H]1CCN(C(=O)c2ccc3ccccc3c2)C[C@H]1c1cc(C(F)F)nc2ncnn12 [Compound 331] | 193.87 |  |  | 98 | 50.1 |  |  |  |  |  |  |  |  | 100 | 14.5 |

The remaining lines, values behind:

| Structure (SMILES) | Emax [2] [%] | IC50 [1, 8] [nM] | Emax ([1]; human recombinant PDE2A) [%] | IC50 [1, 9] [nM] | receptor occupancy at 10 mg/kg (PDE2A; sc, 10 mg/kg, route SC (subcutaneous), percentage receptor occupancy, ex-vivo autoradiography, striatum) [%] | melting point [°C] | IC50 ([1]; hPDE2A pIC50) [nM] | IC50 [1, 4] [nM] | Emax [1] [%] | IC50 [2] [nM] | Emax [3, 5] [%] | IC50 [3, 6] | PDE2 Occupancy at 10 mg/kg (PDE2A; 10 mg/kg, route PO (oral), percentage receptor occupancy, ex-vivo autoradiography, striatum) | receptor occupancy at 10 mg/kg (PDE2A; [7]) [%] | hPDE10A2 Emax ([3]; human clone (h), default) | receptor occupancy at 10 mg/kg (PDE2A; [10]) [%] | ED50 (PDE2A; po, read-out: PDE Occupancy ED50) [mg/kg] | hPDE3B Emax [2] | Emax [3, 11] [%] | IC50 [3, 12] [nM] |
| --- | --- | --- | --- | --- | --- | --- | --- | --- | --- | --- | --- | --- | --- | --- | --- | --- | --- | --- | --- | --- |
| COc1cc(C(=O)N2CC[C@@H](C)[C@H](c3cc(C)nc4ncnn34)C2)cc(Cl)n1 [Compound 22] | 87 |  |  |  |  | 217.82 | 2.34 | 2.34 | 100 | 1510 | 99 | 15.8 nM | 30 | 18 |  |  |  |  |  |  |
| O=C(c1ccc2ncsc2c1)N1[C@H]2CC[C@H](c3cc(C(F)F)nc4ncnn34)[C@@H]1CC2 [Compound 25a] | 54 | 0.708 | 100 | 1.07 |  | 240.33 |  |  | 100 | 8710 | 94 | 589 nM and 389 nM |  |  | 96 | 66 | 4 |  |  |  |
| Cc1cc(C(=O)N2[C@H]3CC[C@H](c4cc(C(F)F)nc5ncnn45)[C@@H]2CC3)cc(C)n1 [Compound 29] |  | 1.51 | 101 | 1.51 |  | 176.52 |  |  | 101 | > 10000 | 90 | 692 nM |  |  |  | 31 |  | 18 |  |  |
| Cc1cc(C)cc(C(=O)N2CC[C@H](C)[C@@H](c3cc(C(F)F)nc4ncnn34)C2)c1 [Compound 214] | 9 |  |  |  |  | 203.97 | 6310 | 6310 | 9 | > 10000 | 30 | > 10000 nM |  |  |  |  |  |  | 30 | > 10000 |
| O=C(c1cc(Cl)cc(Cl)c1)N1[C@H]2CC[C@H](c3cc(C(F)F)nc4ncnn34)[C@@H]1CC2 [Compound 333] | 63 |  |  | 8.13 |  | 291.55 |  |  | 99 | 6920 |  |  |  |  |  |  |  |  | 93 | 708 |
| CC(C)n1ccc2cc(C(=O)N3[C@H]4CC[C@H](c5cc(C(F)F)nc6ncnn56)[C@@H]3CC4)ccc21 [Compound 355] | 98 |  |  | 0.933 |  | 146.08 |  |  | 99 | 724 |  |  |  |  |  |  |  |  | 98 | 234 |
| O=C(c1cn2ccsc2n1)N1[C@H]2CC[C@H](c3cc(C(F)F)nc4ncnn34)[C@@H]1CC2 [Compound 360] | 50 |  |  | 40.7 |  | 264.8 |  |  | 97 | 8510 |  |  |  |  |  |  |  |  | 55 | 6920 |
| Cc1cc(C(=O)N2[C@H]3CC[C@H](c4cc(C(F)F)nc5ncnn45)[C@@H]2CC3)ccc1Cl [Compound 375] | 73 |  |  | 3.55 |  | 171.51 |  |  | 101 | 4470 |  |  |  |  |  |  |  |  | 94 | 813 |
| COc1ccc(C(=O)N2[C@H]3CC[C@H](c4cc(C(F)F)nc5ncnn45)[C@@H]2CC3)cc1Cl [Compound 376] | 79 |  |  | 4.27 |  | 175.71 |  |  | 101 | 3390 |  |  |  |  |  |  |  |  | 97 | 309 |
| O=C(c1ccc(F)c(Cl)c1)N1[C@H]2CC[C@H](c3cc(C(F)F)nc4ncnn34)[C@@H]1CC2 [Compound 377] | 47 |  |  | 17.8 |  | 183.67 |  |  | 99 | 9770 |  |  |  |  |  |  |  |  | 89 | 1290 |
